Values after ≈ are worked out from the molar mass of the structure shown. Values joined by “and” are separate entries in the source; they are usually repeats but may differ in a detail not shown here. Equal values may be shown once. “Also recorded” adds a separate entry of the source. Where a name gives a salt, the structure may show the parent alone. Read-outs that look alike come from different tables or passages of the source.
Tests used:
[1] = tested on: S. aureus strain Newbould 305; assay: MIC against the S. aureus challenge strain; type: cell-based, Staphylococcus aureus; settings: S. aureus Newbould 305 strain used for the challenge
[2] = tested on: Staphylococcus aureus strain Newbould 305 (ATCC 29740); assay: Example 1: experimental S. aureus mastitis in lactating cows, intramammary treatment; type: in vivo, Prim'Holstein lactating cows
Protocol: A Staphylococcus aureus strain Newbould 305 (ATCC 29740) stock suspension (about 10^11 CFU/ml) was kept frozen at −80° C. in peptone physiological water with 10% of glycerol. On day 0, the stock solution was thawed and diluted in peptone physiological water to a concentration of ca 1000 cfu/ml.
On Day 0 8 Prim'Holstein lactating cows, animals of between 2-5 years old and at least 2 months in lactation, were intramammarily inoculated into two homolateral quarters with 1 ml of S. aureus suspension per quarter (ca. 1000 cfu/quarter) into the teat cistern with sterile 2-ml syringes. Teat ends were disinfected with towels soaked in a disinfectant solution before infusion.
On day 6 after the challenge 4 cows (8 quarters) were treated with 75 mg cefquinome—one injector after each of 3 consecutive milkings—Group A. The 4 other cows infected were treated with 75 mg cefquinome as well, but 10 μg of re-LPS were infused just before each cefquinome infusion—Group B.
The standard assay for measuring mastitis in the dairy industry is to count the number of cells (originating from the cow) in the milk. This estimate is termed the somatic cell count (SCC). Specifically, the SCC reflects the levels of cells, including immune cells, such as leukocytes that are released from the lining and tissues of the udder of the infected animal, into the udder cavity. The number of somatic cells in a given volume of milk (typically 1 ml) provides a semi-quantitative estimate of the degree of mastitis, because unaffected animals typically have low SCC levels.
Milk samples were investigated for S. aureus presence and SCC levels at several time points during the study (days 2, 6, 9, 13, 16, 20, 23 post challenge for S. aureus bacteriology).
Clinical cure was assessed 16 days after treatment end (i.e. 23 days after the challenge), and was defined as having at least the two last consecutive milk samples with SCC <250000 cells/ml.

[3] = tested on: TLR4; settings: relative to native LPS; cited from earlier work
[4] = relative to native LPS; cited from earlier work
[5] = tested on: Staphylococcus aureus strain Newbould 305 (ATCC 29740); assay: Example 2: experimental S. aureus mastitis in lactating cows, intramammary treatment; type: in vivo, Prim'Holstein lactating cows; settings: after Re-LPS infusion with neomycin/penicillin
Protocol: A Staphylococcus aureus strain Newbould 305 (ATCC 29740) stock suspension (about 10^9 CFU/ml) was kept frozen at −80° C. in peptone physiological water with 10% of glycerol. On day 0, the stock solution was thawed and diluted in peptone physiological water to a concentration of ca 200 cfu/ml.
On Day 0, 12 Prim'Holstein lactating cows, animals of between 2-8 years old and at least 1 month in lactation, were inoculated by intramammary route into two homo-lateral quarters, with 5 ml of S. aureus suspension per quarter (ca. 1000 cfu/quarter), using 5-ml syringes. Teat ends were disinfected with towels soaked in a disinfectant solution before infusion. […]
The standard assay for measuring mastitis in the dairy industry is to count the number of cells (originating from the cow) in the milk. […] The number of somatic cells in a given volume of milk (typically 1 ml) provides a semi-quantitative estimate of the degree of mastitis, because unaffected animals typically have low SCC levels. […]
Bacteriological cure was assessed 16 days after treatment end (i.e. 24 days after the challenge) and was defined as having at least the two last consecutive milk samples found negative for S. aureus (<5 cfu/ml).
Clinical cure was assessed 16 days after treatment end (i.e. 24 days after the challenge), and was defined as having at least the two last consecutive milk samples with SCC <250000 cells/ml.

Molecule: neomycin
- MIC [1]: 2 mg/L

Molecule: CO/N=C(\C(=O)N[C@@H]1C(=O)N2C(C(=O)[O-])=C(C[n+]3cccc4c3CCCC4)CS[C@H]12)c1csc(N)n1 [cefquinome, I1-[[(6R,7R)-7-[[(2Z)-(2-amino-4-thiazolyl)-(methoxyimino)acetyl]amino]-2-carboxy-8-oxo-5-thia-1-azabicyclo[4.2.0-oct-2-en-3-yl]methyl]-5,6,7,8-tetrahydroquinoliniuminner salt]
- MIC [1]: 0.25 mg/L
- Quarters cure rate, bacteriological + clinical ([2]; day 23): 37.5% (3/8)
- Quarters cure rate, clinical ([2]; day 23, two last samples SCC <250000 cells/ml): 37.5% (3/8)
- Cure ([2]; individual quarter, assessed at day 23 (16 days after treatment end)): no (4×) and yes (4×)
- Quarter milk SCC at day 9 ([2]; individual quarter, day 9 relative to infection (day 0), treatment at day 6): 628 ×10^3 cell/ml and 310 ×10^3 cell/ml and 521 ×10^3 cell/ml and 533 ×10^3 cell/ml and 763 ×10^3 cell/ml and 334 ×10^3 cell/ml and 795 ×10^3 cell/ml and 249 ×10^3 cell/ml
- Quarter milk SCC at day 13 ([2]; individual quarter, day 13 relative to infection, treatment at day 6): 384 ×10^3 cell/ml and 828 ×10^3 cell/ml and 1533 ×10^3 cell/ml and 414 ×10^3 cell/ml and 250 ×10^3 cell/ml and 177 ×10^3 cell/ml and 112 ×10^3 cell/ml and 134 ×10^3 cell/ml
- Quarter milk SCC at day 16 ([2]; individual quarter, day 16 relative to infection, treatment at day 6): 2032 ×10^3 cell/ml and 921 ×10^3 cell/ml and 254 ×10^3 cell/ml and 317 ×10^3 cell/ml and 74 ×10^3 cell/ml and 125 ×10^3 cell/ml and 785 ×10^3 cell/ml and 95 ×10^3 cell/ml
- Quarter milk SCC at day 20 ([2]; individual quarter, day 20 relative to infection, treatment at day 6): 2008 ×10^3 cell/ml and 717 ×10^3 cell/ml and 281 ×10^3 cell/ml and 589 ×10^3 cell/ml and 137 ×10^3 cell/ml and 177 ×10^3 cell/ml and 1686 ×10^3 cell/ml and 77 ×10^3 cell/ml
- Quarter milk SCC at day 23 ([2]; individual quarter, day 23 relative to infection, treatment at day 6): 1382 ×10^3 cell/ml and 739 ×10^3 cell/ml and 536 ×10^3 cell/ml and 186 ×10^3 cell/ml and 98 ×10^3 cell/ml and 109 ×10^3 cell/ml and 2482 ×10^3 cell/ml and 47 ×10^3 cell/ml

Molecule: CCCCCCCCCCCCCC(=O)O[C@H](CCCCCCCCCCC)CC(=O)OC1C(NC(=O)C[C@@H](CCCCCCCCCCC)OC(=O)CCCCCCCCCCC)[C@H](OCC2O[C@H](OP(=O)(O)O)C(NC(=O)C[C@H](O)CCCCCCCCCCC)C(OC(=O)C[C@H](O)CCCCCCCCCCC)[C@@H]2O)OC(CO[C@]2(C(=O)O)CC(O[C@]3(C(=O)O)CC(O)[C@@H](O)C([C@H](O)CO)O3)[C@@H](O)C([C@H](O)CO)O2)[C@H]1OP(=O)(O)O.N.N.N.N (stereo partly drawn) [Re-LPS, Kdo2-lipid A]
- Ability to activate TLR4 [3]: comparable to that of native LPS
- Endotoxin activity [4]: equal to that of native LPS; also recorded: comparable to that of native LPS
- SCC levels induced by treatment [5]: above 1.10^6 cells per ml
- SCC levels induced by treatment ([2]; after Re-LPS infusion with cefquinome, Example 1): above 1.10^6 cells per ml

Molecule: CC1(C)S[C@@H]2[C@H](NC(=O)Cc3ccccc3)C(=O)N2[C@H]1C(=O)O [benzyl penicillin]
- MIC ([1]; Staphylococcus aureus, read-out: MIC): 0.064 mg/L (≈ 0.191 µM)
